Reference: PMC8807399, “Synthesis, Characterization, and in vivo Evaluation of a Novel Potent Autotaxin-Inhibitor” (Frontiers in Pharmacology, 2022)

Assays:
EAG model rats = assay: Experimental autoimmune glaucoma (EAG) model; assay type: in vivo, rat; conditions: ONA + ATX-i group; for IOP: 20 mg/kg food admix
Description: Calculations of the daily doses were based on average food intake of rats used in the studies. […] After mixing, ethanol was removed in vacuo until dryness.
The regular chow diet for the treatment groups was replaced with the same chow diet containing the treatment substance.
For the EAG model, preparation and immunization of the optic nerve antigen (ONA = bovine optic nerve homogenate) was carried out as previously described ([Laspas et al., 2011]; [Joachim et al., 2013]). Rats received an intraperitoneal injection with 8 mg/ml ONA. The antigen was mixed with incomplete Freund’s adjuvant (500 µl) plus 3 µg pertussis toxin (both Sigma Aldrich, St. Louis, MO, United States). The animals of the control group were injected with NaCl in Freund’s adjuvant and pertussis toxin. Rats were sacrificed 28 days after immunization.
Aqueous humor and serum were collected at the end of the EAG study. IgG levels were measured in serum and aqueous humor samples from the EAG study (both: 6-7 samples/group) using a sandwich enzyme-linked immunosorbent assay (ELISA) kit (eBioscience, Frankfurt, Germany) according to the manufacturer’s instructions. In brief, samples of aqueous humor from both groups were prediluted 1,000- or 2,000-fold in assay buffer, serum samples were diluted 100,000- or 200,000-fold in assay buffer. 75 µl of assay buffer were inserted into each sample well. 25 µl of the prediluted sample were added to the appropriate wells. All samples were incubated, and the absorbance was read at 405 nm using a microplate reader (AESKU.Reader with Gen5 ELISA Software, AESKU.DIAGNOSTICS, Wendelsheim, Germany) ([Reinehr et al., 2018]; [Tsai et al., 2018]).
The IOP was measured in both eyes of each animal in the EAG study with a rebound tonometer (Tonolab; iCare, Oy, Finland) 1 week before as well as 1, 2, and 3 weeks after immunization (n = 5–6 animals/group). The tonometer was held horizontally in front of the animal’s eye ([Pease et al., 2006]). 10 measurements per eye were recorded. From these values, the mean value was calculated ([Reinehr et al., 2019a]).
After explantation, eyes and optic nerves were fixed in 4% paraformaldehyde for 60 min (eyes) or 120 min (optic nerves) and then treated with 30% sucrose overnight. Afterwards, the retinas and optic nerves were embedded in NEG-50 Tissue-Tek medium (Thermo Fisher, Waltham, MA, United States). Cryo-cross sections of the eyes (10 µm) or longitudinal sections of the optic nerves (4 µm) were cut on a microtome (Thermo Fisher), mounted on Histobond Superfrost^+ slides (Thermo Fisher) and fixed in ice cold acetone for 10 min.
Longitudinal optic nerve sections (EAG: 5-6 nerves/group, I/R 14 days: 6-7 nerves/group) were stained with H&E and luxol fast blue (LFB). Of each staining, three areas per optic nerve section were documented with a microscope equipped with a CCD camera (Axio Imager M1; Zeiss) as previously described ([Palmhof et al., 2019]). One photo was taken of the proximal part, one of the middle and one of the distal part, right in front of the chiasma.
Cell infiltration in optic nerve sections stained with H&E was evaluated by using a scoring system ranging from 0 to 4 by a masked observer: 0 = no infiltration; 1 = mild cellular infiltration of the optic nerve or optic nerve sheath; 2 = moderate infiltration; 3 = severe infiltration; and 4 = massive infiltration of the optic nerve parenchyma and nodule infiltration ([Shindler et al., 2006]; [Horstmann et al., 2016]; [Renner et al., 2017]). The average score for each optic nerve was used for statistical analysis.
The grade of demyelination was monitored in optic nerve sections stained with LFB. Therefore, staining was scored from 0 to 2 and categorized as follows: 0 = no demyelination; 0.5 = mild demyelination; 1 = moderate demyelination; 1.5 = advanced demyelination; and 2 = severe demyelination up to dissolution of the tissue.

S1P3 = target: T1, S1P3 (Homo sapiens, UniProt Q99500); assay: Off-target screen S1P3, agonist mode; assay type: cell-based; conditions: 10 µM, single point, duplicates
T1 construct: purchased Eurofins CEREP SA
T1 sequence (Q99500 whole entry): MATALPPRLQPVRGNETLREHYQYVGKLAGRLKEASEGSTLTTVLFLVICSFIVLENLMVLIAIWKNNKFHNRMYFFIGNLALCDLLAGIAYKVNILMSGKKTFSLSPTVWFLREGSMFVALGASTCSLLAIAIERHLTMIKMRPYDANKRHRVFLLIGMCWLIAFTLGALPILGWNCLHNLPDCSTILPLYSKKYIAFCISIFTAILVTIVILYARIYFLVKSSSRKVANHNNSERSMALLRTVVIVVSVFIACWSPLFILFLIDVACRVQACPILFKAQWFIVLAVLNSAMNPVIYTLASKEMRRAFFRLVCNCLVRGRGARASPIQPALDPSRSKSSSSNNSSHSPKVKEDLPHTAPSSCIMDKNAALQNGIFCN

CDK2 = target: T2, CDK2 (Homo sapiens, UniProt P24941); assay: Off-target screen CDK2; assay type: biochemical; conditions: 10 µM; single point, duplicates
T2 construct: purchased Eurofins CEREP SA

[1] = Glutathione addition screening; assay type: in vitro ADME; conditions: human liver microsomes + NADPH + GSH
Description: All sample handling was performed based on a 96-well plate format using an automated pipetting system. The test compounds, positive controls (diclofenac, troglitazone, nefazodone, 4-[[1-(4-fluorophenyl)-2-methyl-1H-imidazol-4-yl]ethynyl]-2-methylpyridine) and solvent control (DMSO) were incubated with human liver microsomes supplemented with NADPH and reduced GSH. Stable GSH conjugates whose production can be assumed to be the result of chemically reactive metabolites were detected using a quadrupole time of flight mass spectrometer run in untargeted full scan accurate mass MSE mode (Waters Xevo G1 QTOFMSE; Waters GmbH, Eschborn, Germany). This generic GSH adduct detection method and the assay workflow are taking advantage of the specific fragmentation behavior of the peptide moiety upon collision induced dissociation of GSH adducts and so are largely independent of the conjugate (“X”) itself.

S1P1 = target: T3, S1P1 (Homo sapiens, UniProt P21453); assay: Off-target screen S1P1, antagonist mode; assay type: cell-based; conditions: 10 µM, single point, duplicates
T3 construct: purchased Eurofins CEREP SA
T3 sequence (P21453 whole entry): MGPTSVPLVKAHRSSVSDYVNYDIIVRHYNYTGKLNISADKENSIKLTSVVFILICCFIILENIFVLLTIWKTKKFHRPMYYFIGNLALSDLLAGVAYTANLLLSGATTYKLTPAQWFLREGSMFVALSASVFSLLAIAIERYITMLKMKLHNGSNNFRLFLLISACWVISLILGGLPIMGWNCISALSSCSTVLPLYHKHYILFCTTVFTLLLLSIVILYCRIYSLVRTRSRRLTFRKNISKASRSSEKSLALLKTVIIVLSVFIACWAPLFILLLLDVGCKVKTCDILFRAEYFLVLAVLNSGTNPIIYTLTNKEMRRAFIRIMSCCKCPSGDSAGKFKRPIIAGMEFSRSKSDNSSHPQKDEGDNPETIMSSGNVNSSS

5HT2a = target: T4, 5HT2a (Homo sapiens, UniProt P28223); assay: Off-target screen 5HT2a; assay type: binding; conditions: 10 µM; single point, duplicates
T4 construct: purchased Eurofins CEREP SA
T4 sequence (P28223 whole entry): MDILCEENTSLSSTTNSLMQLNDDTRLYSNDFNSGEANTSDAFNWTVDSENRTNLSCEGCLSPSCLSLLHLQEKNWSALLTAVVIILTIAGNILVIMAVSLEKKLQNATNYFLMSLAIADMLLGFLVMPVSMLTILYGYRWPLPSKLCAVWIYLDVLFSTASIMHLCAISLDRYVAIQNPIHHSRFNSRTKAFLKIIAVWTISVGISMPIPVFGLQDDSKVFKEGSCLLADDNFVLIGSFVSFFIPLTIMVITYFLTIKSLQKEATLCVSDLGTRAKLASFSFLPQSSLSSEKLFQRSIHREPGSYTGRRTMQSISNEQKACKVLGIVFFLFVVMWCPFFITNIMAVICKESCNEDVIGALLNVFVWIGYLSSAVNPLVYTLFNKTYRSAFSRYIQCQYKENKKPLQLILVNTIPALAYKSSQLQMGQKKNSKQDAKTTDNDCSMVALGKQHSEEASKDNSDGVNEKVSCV

Androgen receptor = target: T5, Androgen receptor (Homo sapiens, UniProt P10275); assay: Off-target screen Androgen receptor; assay type: binding; conditions: 10 µM; single point, duplicates
T5 construct: purchased Eurofins CEREP SA
T5 sequence (P10275 whole entry): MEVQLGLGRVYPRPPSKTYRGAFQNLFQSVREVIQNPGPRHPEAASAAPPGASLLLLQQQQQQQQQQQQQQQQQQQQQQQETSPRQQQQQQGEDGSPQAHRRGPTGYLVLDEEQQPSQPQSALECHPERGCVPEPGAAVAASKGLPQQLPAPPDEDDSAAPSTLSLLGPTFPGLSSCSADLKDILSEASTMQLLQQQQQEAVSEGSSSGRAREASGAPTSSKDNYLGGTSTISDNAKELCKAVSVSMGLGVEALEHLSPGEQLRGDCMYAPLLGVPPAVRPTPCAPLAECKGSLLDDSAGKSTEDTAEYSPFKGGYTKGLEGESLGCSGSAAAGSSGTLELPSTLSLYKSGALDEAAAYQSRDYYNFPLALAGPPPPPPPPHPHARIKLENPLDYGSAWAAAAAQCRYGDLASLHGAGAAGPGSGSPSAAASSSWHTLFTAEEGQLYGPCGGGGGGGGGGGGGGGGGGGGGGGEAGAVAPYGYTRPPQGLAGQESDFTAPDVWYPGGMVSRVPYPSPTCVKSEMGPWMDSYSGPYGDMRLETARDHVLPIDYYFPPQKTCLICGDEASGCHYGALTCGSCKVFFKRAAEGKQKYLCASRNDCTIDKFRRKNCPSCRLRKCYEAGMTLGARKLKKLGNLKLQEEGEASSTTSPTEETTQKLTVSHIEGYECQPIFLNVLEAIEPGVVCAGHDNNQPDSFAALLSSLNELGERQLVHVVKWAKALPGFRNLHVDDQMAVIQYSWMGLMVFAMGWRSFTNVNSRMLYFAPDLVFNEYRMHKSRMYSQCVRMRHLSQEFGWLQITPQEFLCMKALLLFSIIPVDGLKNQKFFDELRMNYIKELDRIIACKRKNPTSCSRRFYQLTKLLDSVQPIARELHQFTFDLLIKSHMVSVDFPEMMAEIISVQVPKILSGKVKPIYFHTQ

LPA1 receptor = target: T6, LPA1 receptor (Homo sapiens, UniProt Q92633); assay: Off-target screen LPA1 receptor; conditions: 10 µM; single point, duplicates
T6 construct: purchased Eurofins CEREP SA
T6 sequence (Q92633 whole entry): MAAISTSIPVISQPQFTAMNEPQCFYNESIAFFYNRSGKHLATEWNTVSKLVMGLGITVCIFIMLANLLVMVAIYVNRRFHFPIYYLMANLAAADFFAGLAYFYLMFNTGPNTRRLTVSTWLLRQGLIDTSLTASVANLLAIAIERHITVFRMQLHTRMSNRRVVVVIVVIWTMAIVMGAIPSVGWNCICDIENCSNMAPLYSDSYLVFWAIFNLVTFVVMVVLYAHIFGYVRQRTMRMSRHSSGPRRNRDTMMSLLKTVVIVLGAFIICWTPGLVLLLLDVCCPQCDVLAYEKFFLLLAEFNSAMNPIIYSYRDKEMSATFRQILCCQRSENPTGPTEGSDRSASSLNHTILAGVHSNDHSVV

O=C(OCc1ccc(OC(F)(F)F)cc1)N1C[C@@H]2CN(C(=O)c3ccc4[nH]nnc4c3)C[C@H]2C1 [Compound 13, (3aS,6aS)-5-(1H-Benzotriazole-5-carbonyl)-hexahydro-pyrrolo[3,4-c]pyrrole-2-carboxylic acid 4-trifluoromethoxy-benzyl ester]
IOP (EAG model rats; 1 week after immunization, ONA 10.44 ± 0.62, control 11.26 ± 0.54): 10.54 ± 0.40 mmHg | IOP (EAG model rats; 1 week before immunization, ONA 10.34 ± 0.67, control 10.36 ± 1.03): 10.91 ± 0.50 mmHg | IOP (EAG model rats; 2 weeks after immunization, ONA 10.74 ± 0.55, control 11.36 ± 0.52): 10.85 ± 0.42 mmHg | IOP (EAG model rats; 3 weeks after immunization, ONA 10.77 ± 0.77, control 11.47 ± 0.62): 10.69 ± 0.60 mmHg | ED1+ and Iba1+ active microglia, optic nerve (EAG model rats; 28 days, ONA 0.27 ± 0.24, control 0.06 ± 0.11): 0.22 ± 0.10 cells/image | Iba1+ microglia, optic nerve (EAG model rats; 28 days, ONA 3.14 ± 0.94, control 1.28 ± 0.15): 2.96 ± 0.92 cells/image | ED1+ and Iba1+ microglia, retina (EAG model rats; 28 days, ONA 7.70 ± 6.27, control 1.52 ± 1.28): 5.08 ± 1.86 cells/mm | GFAP area, retina (EAG model rats; 28 days, ONA 13.55 ± 3.42, control 9.72 ± 0.84): 10.30 ± 2.29 area [%]/section | Iba1+ microglia cell count, retina (EAG model rats; 28 days, ONA 22.06 ± 7.81, control 13.67 ± 3.04): 19.76 ± 2.82 cells/mm | Brn-3a+ RGC number, retina (EAG model rats; 28 days, ONA 29.47 ± 6.20, control 58.11 ± 4.22, p = 0.032 vs ONA): 38.59 ± 4.33 cells/mm | Optic nerve LFB score (EAG model rats; 28 days, score 0-2, ONA 0.58 ± 0.20, control 0.31 ± 0.13): 0.77 ± 0.66 | GFAP score, optic nerve (EAG model rats; 28 days, score 0-2, ONA 0.81 ± 0.17, control 0.71 ± 0.26): 1.00 ± 0.29 | Optic nerve SMI-32 score (EAG model rats; 28 days, score 0-2, ONA 0.91 ± 0.08, control 0.58 ± 0.14): 0.75 ± 0.19 | Optic nerve H&E score (EAG model rats; 28 days, score 0-4, ONA 1.22 ± 0.43, control 0.80 ± 0.51): 1.27 ± 0.86 | Serum IgG level (EAG model rats; end of EAG study, ONA 15.78 ± 5.00, control 8.31 ± 5.76): 12.30 ± 2.70 mg/mL | Aqueous humor IgG level (EAG model rats; end of EAG study, ONA 272.24 ± 98.17, control 62.31 ± 19.91, p = 0.025 vs ONA): 167.26 ± 34.50 µg/mL | S1P3 (h), agonist mode [% pos ctrl] (S1P3): 8 % pos ctrl | CDK2 (h) [% inhib] (CDK2): 0 % inhib | GSH adducts [1]: Neg | S1P1 (h), antago. mode [% inhib] (S1P1): 8 % inhib | 5HT2a (h) [% inhib] (5HT2a): 39 % inhib | Androgen receptor (h) [% inhib] (Androgen receptor): -1 % inhib | LPA1 receptor (h) [% inhib] (LPA1 receptor): -19 % inhib
